Assay results published in BigSolDB 2.1.

Cl.c1ccc2c(CC3=NCCN3)cccc2c1
solubility (mole fraction)
Conditions	278.15 K	283.15 K	288.15 K	293.15 K	298.15 K	303.15 K	308.15 K	313.15 K	318.15 K	323.15 K
in 2-methoxyethanol	0.0132	0.0157	0.0184	0.0214	0.0246	0.0287	0.0329	0.0366	0.0419	0.0476
in ethanol	0.00313	0.00386	0.00457	0.00545	0.00639	0.0076	0.00893	0.0104	0.012	0.014
in isopropanol	0.000605	0.000784	0.00101	0.0013	0.00169	0.00202	0.00249	0.00309	0.00377	0.00462
in methanol	0.011	0.0137	0.0164	0.0198	0.0243	0.0287	0.0337	0.04	0.0462	0.0527
